Patent US20170210723A1, “MOLECULES HAVING PESTICIDAL UTILITY, AND INTERMEDIATES, COMPOSITIONS, AND PROCESSES, RELATED THERETO” (priority 2016, published 2017)

Legend:
[1] = tested on: Beet Armyworm (Spodoptera exigua); experiment: Bioassays on BAW, 128-well diet tray assay; type: in vivo; settings: Spodoptera exigua; for mortality at 50 µg/cm2: 168 h, 50 μg/cm^2 on artificial diet, second instar larvae, five to seven days, read-out: BAW % Control (or Mortality) rating
Experimental: Bioassays on BAW were conducted using a 128-well diet tray assay. One to five second instar BAW larvae were placed in each well (3 mL) of the diet tray that had been previously filled with 1 mL of artificial diet to which 50 μg/cm^2 of the test molecule (dissolved in 50 μL of 90:10 acetone-water mixture) had been applied (to each of eight wells) and then allowed to dry. Trays were covered with a clear self-adhesive cover and held at 25° C., 14:10 light-dark for five to seven days. Percent mortality was recorded for the larvae in each well; activity in the eight wells was then averaged. The results are indicated in the table entitled “Table ABC: Biological Results” (See Table Section).
(§1) Bioassays on BAW and CL were conducted according to the procedures outlined in Example A: Bioassays on Beet Armyworm (“BAW”) and Cabbage Looper (“CL”) using the indicated concentrations.

[2] = tested on: Cabbage Looper (Trichoplusia ni); experiment: Bioassays on CL, 128-well diet tray assay; type: in vivo; settings: Trichoplusia ni; for mortality at 50 µg/cm2: 168 h, 50 μg/cm^2 on artificial diet, second instar larvae, five to seven days, read-out: CL % Control (or Mortality) rating
Experimental: Bioassays on CL were conducted using a 128-well diet tray assay.
One to five second instar CL larvae were placed in each well (3 mL) of the diet tray that had been previously filled with 1 mL of artificial diet to which 50 μg/cm^2 of the test molecule (dissolved in 50 μL of 90:10 acetone-water mixture) had been applied (to each of eight wells) and then allowed to dry. Trays were covered with a clear self-adhesive cover and held at 25° C., 14:10 light-dark for five to seven days. Percent mortality was recorded for the larvae in each well; activity in the eight wells was then averaged. The results are indicated in the table entitled “Table ABC: Biological Results” (See Table Section).
as §1

| SMILES | mortality at 50 µg/cm2 [1] [%] | mortality at 50 µg/cm2 [2] [%] | further results |
| --- | --- | --- | --- |
| C[C@H](CSCC(F)(F)F)NC(=O)c1ccc(/C=C/C(c2cc(Cl)c(Cl)c(Br)c2)C(F)(F)F)cc1C(F)(F)F (stereo partly drawn) [F116, 4-((E)-3-(3-Bromo-4,5-dichlorophenyl)-4,4,4-trifluorobut-1-en-1-yl)-N—((R)-1-((2,2,2-trifluoroethyl)thio)propan-2-yl)-2-(trifluoromethyl)benzamide] | 50 to 100 | 50 to 100 | – |
| CC(C)CS(=O)(=O)C[C@@H](C)NC(=O)c1ccc(/C=C/C(c2cc(Cl)c(Cl)c(Cl)c2)C(F)(F)F)cc1C(F)(F)F (stereo partly drawn) [F81, N—((R)-1-(Isobutylsulfonyl)propan-2-yl)-4-((E)-4,4,4-trifluoro-3-(3,4,5-trichlorophenyl)but-1-en-1-yl)-2-(trifluoromethyl)benzamide] | 50 to 100 | 50 to 100 | – |
| C[C@H](CS(=O)(=O)CC(F)(F)F)NC(=O)c1ccc(/C=C/C(c2cc(Cl)c(Cl)c(Cl)c2)C(F)(F)F)cc1C(F)F (stereo partly drawn) [F43, 2-(Difluoromethyl)-4-((E)-4,4,4-trifluoro-3-(3,4,5-trichlorophenyl)but-1-en-1-yl)-N—((R)-1-((2,2,2-trifluoroethyl)sulfonyl)propan-2-yl)benzamide] | 50 to 100 | 50 to 100 | – |
| O=C(NCCS(=O)(=O)c1ccc(Cl)cc1)c1ccc(/C=C/C(c2cc(Cl)c(Cl)c(Cl)c2)C(F)(F)F)cc1Br (stereo not shown) [F4, (E)-2-Bromo-N-(2-((4-chlorophenyl)sulfonyl)ethyl)-4-(4,4,4-trifluoro-3-(3,4,5-trichlorophenyl)but-1-en-1-yl)benzamide] | 50 to 100 | 50 to 100 | – |
| CC(C)[C@H](CS(=O)(=O)CC(F)(F)F)NC(=O)c1ccc(/C=C/C(c2cc(Cl)c(Cl)c(Cl)c2)C(F)(F)F)cc1C(F)(F)F (stereo partly drawn) [F16, N—((R)-3-Methyl-1-((2,2,2-trifluoroethyl)sulfonyl)butan-2-yl)-4-((E)-4,4,4-trifluoro-3-(3,4,5-trichlorophenyl)but-1-en-1-yl)-2-(trifluoromethyl)benzamide] | 50 to 100 | 50 to 100 | – |
| CO/C(=C\C(c1cc(Cl)c(Cl)c(Cl)c1)C(F)(F)F)c1ccc(C(=O)N[C@H](C)CSCC(F)(F)F)c(C(F)(F)F)c1 (stereo partly drawn) [F31, 4-((Z)-4,4,4-Trifluoro-1-methoxy-3-(3,4,5-trichlorophenyl)but-1-en-1-yl)-N—((R)-1-((2,2,2-trifluoroethyl)thio)propan-2-yl)-2-(trifluoromethyl)benzamide] | 50 to 100 | 50 to 100 | – |
| C[C@H](CS(=O)(=O)CC(F)(F)F)NC(=O)c1ccc(/C=C/C(c2cc(Cl)c(Cl)c(Cl)c2)C(C)(F)F)cc1C(F)(F)F (stereo partly drawn) [F84, 4-((E)-4,4-Difluoro-3-(3,4,5-trichlorophenyl)pent-1-en-1-yl)-N—((R)-1-((2,2,2-trifluoroethyl)sulfonyl)propan-2-yl)-2-(trifluoromethyl)benzamide] | 50 to 100 | 50 to 100 | – |
| C[C@H](CS(=O)(=O)CC(F)(F)F)NC(=O)c1ccc(/C=C/C(c2cc(Cl)cc(Cl)c2)C(C)(F)F)cc1Br (stereo partly drawn) [F133, 2-Bromo-4-((E)-3-(3,5-dichlorophenyl)-4,4-difluoropent-1-en-1-yl)-N—((R)-1-((2,2,2-trifluoroethyl)sulfonyl)propan-2-yl)benzamide] | 50 to 100 | 50 to 100 | – |
| C[C@H](CS(=O)(=O)CCF)NC(=O)c1ccc(/C=C/C(c2cc(Cl)c(Cl)c(Cl)c2)C(C)(F)F)cc1C(F)(F)F (stereo partly drawn) [F122, 4-((E)-4,4-Difluoro-3-(3,4,5-trichlorophenyl)pent-1-en-1-yl)-N—((R)-1-((2-fluoroethyl)sulfonyl)propan-2-yl)-2-(trifluoromethyl)benzamide] | 50 to 100 | 50 to 100 | – |
| CCO/C(=C\C(c1cc(Cl)c(Cl)c(Cl)c1)C(F)(F)F)c1ccc(C(=O)N[C@H](C)CSCC(F)(F)F)c(C(F)(F)F)c1 (stereo partly drawn) [F29, 4-((Z)-1-ethoxy-4,4,4-trifluoro-3-(3,4,5-trichlorophenyl)but-1-en-1-yl)-N—((R)-1-((2,2,2-trifluoroethyl)thio)propan-2-yl)-2-(trifluoromethyl)benzamide] | 50 to 100 | 0 | – |
| C[C@H](CS(=O)(=O)CC(F)(F)F)NC(=O)c1ccc(/C=C/C(c2ccc(C(F)(F)F)c(F)c2)C(C)(F)F)cc1C(F)(F)F (stereo partly drawn) [F123, 4-((E)-4,4-Difluoro-3-(3-fluoro-4-(trifluoromethyl)phenyl)pent-1-en-1-yl)-N—((R)-1-((2,2,2-trifluoroethyl)sulfonyl)propan-2-yl)-2-(trifluoromethyl)benzamide] | 50 to 100 | 50 to 100 | – |
| C[C@H](CS(=O)(=O)CC(F)(F)F)NC(=O)c1ccc(/C=C/C(c2ccc(F)c(C(F)(F)F)c2)C(C)(F)F)cc1C(F)(F)F (stereo partly drawn) [F135, 4-((E)-4,4-Difluoro-3-(4-fluoro-3-(trifluoromethyl)phenyl)pent-1-en-1-yl)-N—((R)-1-((2,2,2-trifluoroethyl)sulfonyl)propan-2-yl)-2-(trifluoromethyl)benzamide] | 50 to 100 | 50 to 100 | – |
| CC(C)[S+]([O-])C[C@@H](C)NC(=O)c1ccc(/C=C/C(c2cc(Cl)c(Cl)c(Cl)c2)C(F)(F)F)cc1C(F)(F)F (stereo partly drawn) [F82, N-((2R)-1-(Isopropylsulfinyl)propan-2-yl)-4-((E)-4,4,4-trifluoro-3-(3,4,5-trichlorophenyl)but-1-en-1-yl)-2-(trifluoromethyl)benzamide] | 50 to 100 | 50 to 100 | – |
| C[C@H](CS(=O)(=O)CC(F)(F)F)NC(=O)c1ccc(/C=C/C(c2cc(Br)cc(OCC(F)(F)F)c2)C(C)(F)F)cc1C(F)(F)F (stereo partly drawn) [F120, 4-((E)-3-(3-Bromo-5-(2,2,2-trifluoroethoxy)phenyl)-4,4-difluoropent-1-en-1-yl)-N—((R)-1-((2,2,2-trifluoroethyl)sulfonyl)propan-2-yl)-2-(trifluoromethyl)benzamide] | 50 to 100 | 50 to 100 | – |
| CC[C@H](CS(=O)(=O)CC(F)(F)F)NC(=O)c1ccc(/C=C/C(c2cc(Cl)c(Cl)c(Cl)c2)C(F)(F)F)cc1C(F)(F)F (stereo partly drawn) [F17, 4-((E)-4,4,4-Trifluoro-3-(3,4,5-trichlorophenyl)but-1-en-1-yl)-N—((R)-1-((2,2,2-trifluoroethyl)sulfonyl)butan-2-yl)-2-(trifluoromethyl)benzamide] | 50 to 100 | 50 to 100 | – |
| C[C@H](CS(=O)(=O)CC(F)(F)F)NC(=O)c1ccc(/C=C/C(c2cc(Cl)c(Cl)c(Cl)c2)C(C)(F)F)cc1Br (stereo partly drawn) [F130, 2-bromo-4-((E)-4,4-difluoro-3-(3,4,5-trichlorophenyl)pent-1-en-1-yl)-N—((R)-1-((2,2,2-trifluoroethyl)sulfonyl)propan-2-yl)benzamide] | 50 to 100 | 50 to 100 | – |
| O=C(NCC1(SCC(F)(F)F)COC1)c1ccc(/C=C/C(c2cc(Cl)c(Cl)c(Cl)c2)C(F)(F)F)cc1C(F)(F)F (stereo not shown) [F83, (E)-4-(4,4,4-Trifluoro-3-(3,4,5-trichlorophenyl)but-1-en-1-yl)-N-((3-((2,2,2-trifluoroethyl)thio)oxetan-3-yl)methyl)-2-(trifluoromethyl)benzamide] | 50 to 100 | 50 to 100 | – |
| C[C@H](CS(=O)(=O)CC(F)(F)F)NC(=O)c1ccc(/C=C/C(c2cc(Cl)c(Cl)c(Cl)c2)C(F)(F)F)cc1 (stereo partly drawn) [FC78, 4-((E)-4,4,4-Trifluoro-3-(3,4,5-trichlorophenyl)but-1-en-1-yl)-N—((R)-1-((2,2,2-trifluoroethyl)sulfonyl)propan-2-yl)benzamide] | 50 to 100 | 50 to 100 | mortality at 0.05 µg/cm2 ([1]; 0.05 μg/cm^2, read-out: BAW Percent control (or mortality)): 0%; mortality at 0.5 µg/cm2 ([1]; 0.5 μg/cm^2, read-out: BAW Percent control (or mortality)): 19%; mortality at 5 µg/cm2 ([1]; 5 μg/cm^2, read-out: BAW Percent control (or mortality)): 100%; mortality at 0.05 µg/cm2 ([2]; 0.05 μg/cm^2, read-out: CL Percent control (or mortality)): 0%; mortality at 0.5 µg/cm2 ([2]; 0.5 μg/cm^2, read-out: CL Percent control (or mortality)): 7%; mortality at 5 µg/cm2 ([2]; 5 μg/cm^2, read-out: CL Percent control (or mortality)): 100% |
| CCO/C(=C\C(c1cc(Cl)c(Cl)c(Cl)c1)C(F)(F)F)c1ccc(C(=O)N[C@H](C)C[S+]([O-])CC(F)(F)F)c(C(F)(F)F)c1 (stereo partly drawn) [F30, 4-((Z)-1-ethoxy-4,4,4-trifluoro-3-(3,4,5-trichlorophenyl)but-1-en-1-yl)-N-((2R)-1-((2,2,2-trifluoroethyl)sulfinyl)propan-2-yl)-2-(trifluoromethyl)benzamide] | 50 to 100 | 50 to 100 | – |
| O=C(NCC1([S+]([O-])CC(F)(F)F)COC1)c1ccc(/C=C/C(c2cc(Cl)c(Cl)c(Cl)c2)C(F)(F)F)cc1C(F)(F)F (stereo not shown) [F107, (E)-4-(4,4,4-Trifluoro-3-(3,4,5-trichlorophenyl)but-1-en-1-yl)-N-((3-((2,2,2-trifluoroethyl)sulfinyl)oxetan-3-yl)methyl)-2-(trifluoromethyl)benzamide] | 50 to 100 | 50 to 100 | – |
